The text below walks through data of US4022842A, “Bibenzyl compounds” (Rikagaku Kenkyusho, priority 1972, dated 1977).

One series deals with oats coleoptile. Nature of the series: Growth inhibition in oats coleoptile sections (Example 4, Table 1). The arrangement: species or system Avena sativa L. The conditions noted are these: Avena sativa; 5 mm sections, 25° C., 20 hours, dark; read-out: Growth Inhibition in oats coleoptile (concentration giving 50% inhibition). The protocol: A compound illustrated in Table 1 was dissolved in dimethylformamide and the solution was diluted to desired concentrations with water containing 2% of sucrose. In control test dimethylformamide was applied in the same amount as that of treated groups. This solvent gives no phytotoxicity to plants to be tested if the content in water is 1% or less. The prepared liquors were poured into culture dishes of 3 cm diameter, the amount of the medium poured into one dish being 2 ml. Sections of 5 mm in length cut from a coleoptiles of oats (Avena sativa L.) which have been grown in the dark were floated on the test media in the culture dishes and cultured at 25° C. for 20 hours in the dark to determine the growth-inhibition degrees.
In the control group, the coleoptile elongated by about 5 mm during the experiment.

A further series deals with lettuce seeds. Nature of the series: Inhibition of germination of lettuce seeds, 50% inhibition (Example 5, Table 2). It counts as in vivo, Lactuca sativa L. Particulars: Lactuca sativa, 48 h; 23° C., dark, 2 days; 1% dimethylformamide; read-out: Inhibition of Germination of Lettuce Seeds, Concentration Giving 50% Inhibition. Here is the method:
Every compound shown in Table 1 was respectively dissolved at various concentrations in distilled water containing 1% of dimethylformamide, and 3 ml each of the resulting solutions was poured into a culture dish of 6 cm diameter in which 2 filter papers were spread. About 100 seeds (non-dormant ware head seeds) of lettuce (Lactuca sativa L.) were shown in each dish, and they were allowed to stand at 23° C. in the dark for 2 days. Germination percentages were determined and plotted against the concentrations of the compound tested. From the graphs obtained the concentration to give 50% inhibition was determined. The definition of inhibition rate is given in the following formula: [formula] Usually the germination percentage of the untreated control lot was about 95%.

Series [1] deals with Bulbils of yam. The experiment in a line: Germination (sprouting) of yam bulbils awakened from dormancy (Example 6, Table 3). The class given is in vivo, Dioscorea batatas Decne. The conditions noted are these: 300 μg/ml; 23° C., light of 1800 luxes, 2 weeks; untreated control 80. Here is the method: Bulbils (fleshy buds for breeding formed on stems) of yam (Dioscorea batatas Decne.) were stored at a low temperature of 5° C. for 3 months and awakened from hibernation. These fleshy buds were treated with the agricultural chemical of this invention in the following manner to lead them to hibernation again.
Every active ingredient compound of this invention shown in the following Table 3 was dissolved emulsified in distilled water containing 1% of dimethylformamide and 0.05% of Tween 20. 25 ml of the resulting liquor was poured into a culture dish of 9 cm diameter in which absorbent cotton was spread, and 30 of bulbis which had been subjected to the above low temperature treatment and awakened from dormancy were sown on the dish and they were allowed to sprout at 23° C. under light of 1800 luxes for 2 weeks.

Series [2] deals with bulbils of yam. Nature of the series: Sprouting of yam bulbils in dark or light (Example 7, Table 4). It counts as in vivo, Discorea batatas Decne. The conditions noted are these: 23° C., 20 days. The protocol:
4-Hydroxy-2,6,7-trimethoxyphenanthrene and 3,3'-dihydroxy-5-methoxybibenzylwere respectively dissolved at various concentrations in water containing 0.05% of Tween 20, and 30 ml each of the resulting solutions were poured into culture dishes of 9 cm in diameter containing 1 g of absorbent cotton.
Thirty bulbils of yam (Discorea batatas Decne.) which had been awakened from dormancy were planted in each of the so arranged culture dishes, and the germination test was carried out at 23° C. either in the dark or in the light. […]

A further series deals with seeds of a lettuce. The experiment in a line: Germination ratio of lettuce seeds (Example 8, Table 5). The class given is in vivo, Lactuca sativa L. Particulars: for Germination Ratio: 23° C., 2 days, untreated control 90. Here is the method: 4-Hydroxy-2,6,7-trimethoxyphenanthrene and 3,3'-dihydroxy-5-methoxybibenzylwere respectively dissolved in water containing 0.05% of Tween 20 and 1% of dimethylformamide, and each of the resulting solution was poured into a culture dish, 6 cm in diameter, in which 2 layers of filter paper were spread to form a germination bed. 100 seeds of a lettuce (Lactuca sativa L.) were sown on the germination bed and cultivation was conducted for 2 days at 23° C. […] [formula]

The subject of a further series is oats coleoptiles. Nature of the series: Growth inhibition of oats coleoptile pieces with indoleacetic acid (Example 9, Table 6). The arrangement: species or system Avena sativa L. Particulars: Avena sativa, 0.1 mg/l indoleacetic acid, 25° C., 18 hours, read-out: Growth Inhibition ratio. Here is the method:
Oats (Avena sativa L.) were allowed to germinate under a weak red light at 25° C. and 3 days after germination sections of […] in length were cut from coleoptiles about 25 mm in length. 4-Hydroxy-2,6,7-trimethoxyphenanthrene or 3,3-dihydroxy-5-methoxybibenzyl was dissolved in a culture medium comprising 0.1 mg/l of indoleacetic acid, 0.05% of Tween 20 and 2% of sucrose, the balance being water. Ten of the above cut-out coleoptile pieces were flated on the resulting culture medium and cultivation was conducted at 25° C. for 18 hours to examine the growth state and the results shown in Table 6 were obtained.

The test system of another series is Seedings of lettuce. The experiment in a line: Growth inhibition of lettuce seedling stems (hypocotyls) (Example 10, Table 7). The class given is in vivo, Lactuca sativa L. The conditions noted are these: Lactuca sativa, 72 h, stem (hypocotyl) length, light place, 23° C., 3 days, read-out: Growth Inhibition Ratio. Here is the method: 4-Hydroxy-2,6,7-trimethoxyphenanthrene or 3,3'-dihydroxy-5-methoxybibenzyl was dissolved in acetone, and the resulting solution was placed in culture dishes in which 2 layers of filter paper were spread so as to give required amounts of the test compound. After the acetone was removed by evaporation, Hoagland's nutrient solution containing 0.05% of Tween 20 was poured into the culture dishes. Seedings of lettuce (Lactuca sativa L.), which had been germinated in a different place, were transplanted to the culture dishes and cultivation was carried out in a light place at 23° C. for 3 days. Then, the lengths of the stems (hypocotyls) were measured to determined the growth inhibition ratio.

The next series in a line: Solubility. The class given is physicochemical.

Converted amounts (≈) assume the structure as drawn.

For the molecule `COc1cc(O)cc(CCc2cccc(O)c2)c1` [Compound 8, 3,3'-dihydroxy-5-methoxybibenzyl], the IC50 with oats coleoptile was 100 µg/mL (≈ 409 µM); in the series on lettuce seeds, 80 µg/mL (≈ 327 µM). Moreover, the “Germination Ratio” value in the series on Bulbils of yam [1] worked out at 50%; with seeds of a lettuce (30 mg/l), 52%; in the series on seeds of a lettuce (100 mg/l), 26%; in the series on seeds of a lettuce (300 mg/l) it was 0%. The “Sprouting Ratio” value was 56% in the series on bulbils of yam [2] (100 mg/l, dark place, untreated control 56); 23% in the series on bulbils of yam [2] (100 mg/l, light place, untreated control 44); 22% in the series with bulbils of yam [2] (300 mg/l, dark place, untreated control 56); 18% in the series on bulbils of yam [2] (300 mg/l, light place, untreated control 44); 14% with bulbils of yam [2] (1000 mg/l, dark place, untreated control 56). Moreover, in the series with seeds of a lettuce (in vivo), the “Blight of germination-inhibited seeds” value is given as “not blighted”. The “Germination after washing and transplanting” value in the series on seeds of a lettuce (washed with water, transplanted on culture dish free of compound) is on record as “complete germination”. Further, the inhibition at 30 µg/mL came to 39% with oats coleoptiles (30 mg/l) and 21% with Seedings of lettuce (30 mg/l). In addition, the inhibition at 100 µg/mL was 76% with oats coleoptiles (100 mg/l) and 48% with Seedings of lettuce (100 mg/l). Also, the inhibition at 300 µg/mL in the series with oats coleoptiles (300 mg/l) is 84%; in the series on Seedings of lettuce (300 mg/l) it was 86%. Further, the “Solubility in ordinary solvents” value in “Solubility” (ethanol, acetone, ethyl acetate and ether) is given as “Soluble”. For the same molecule, in the series “Solubility” (hexane), the Solubility in hexane entry is “insoluble”. Moreover, the Solubility in water result in “Solubility” (water) is “difficultly soluble”.
